Where two headings read alike, the source gives them in different places. Each block holds one compound with its values, some of them ahead of it.
What was measured:
H1975 cells = test: MTT assay for cell proliferation and cytotoxicity, H1975; format: cell-based, human
Procedure, shortened: (§1)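 MTT read-out at 490 nm after 48 h treatment with 0–50 μM compound, applied one day after seeding 2,200–2,500 cells/well; five wells per concentration, 0.1% DMSO as control. Culture in RPMI-1640/10% FBS, with 100 nm/L paclitaxel kept in the taxol-resistant lines.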

H1975OR cells = test: MTT assay, osimertinib-resistant H1975OR; format: cell-based; settings: Homo sapiens
Source text: (§2) The human cancer cells (H1650, H1975, KYSE70, KYSE410 and KYSE450) were purchased from the Type Culture Collection of the Chinese Academy of Sciences (Shanghai, China). The human immortalized normal esophageal epithelial cell line SHEE was donated by Dr. Enmin Li from the Laboratory of Tumor Pathology (Shantou University Medical College, Shantou, Guangdong, China). Drug-resistant cells (H1650TR, H1975OR, KYSE70TR, KYSE410TR and KYSE450TR) were induced by China-US (Henan) Hormel Cancer Institute. The cellswere cultured in RPMI-1640 complete growth medium containing 100 U/mL penicillin-streptomycin and 10% FBS. Based on the above medium formula, 100 nm/L paclitaxel was added in taxol-resistant cells, 100 nm/L gefitinib was added in gefitinib-resistant cells. The cells were incubated at 37 °C in an atmosphere containing 5% of CO2. The compounds were dissolved in DMSO to make a 50 mM stock solution and were diluted to the concentration of working solutions with complete growth medium before administration.
(§3) Cells were seeded in 96-well plates with 2,200–2,500 cells/well in100 μL. One day after seeding, test compounds with the concentration between 0 and 50 μM were added with 0.1% DMSO as control. Five multiple wells for each concentration. […] The absorbance at 490 nm was measured using a microplate reader (Thermo).

[1] = test system: KYSE450 cell-derived xenograft; test: In vivo cell-derived xenograft (CDX) mouse model; set-up: species or system nu/nu nude mice
Method: Mice were housed under specific pathogen-free conditions. All animal experiments were approved by the Bioethics Committee of Zhengzhou University and followed the guidelines set by the Institutional Animal Care and Use Committee (CUHCI2019002, CUHCI2021001, and CUHCI2021005). To generate the cell-derived xenograft (CDX) mouse model, nu/nu nude mice (Vital River Labs., Beijing, China) were subcutaneously injected with 5 × 10^6 cells (KYSE450). […] Tumor volume was calculated as follows: length × width × height × 0.5. Tumor size and mice weight were measured every 2–3 days. Compounds were administered for 15 days. The tumors were extracted for weighting, immunohistochemistry and immunofluorescence studies.
Frozen sections were washed three times with PBS and incubated overnight at 4°C with Ki-67 antibody. The next day, sections were washed three times and incubated with secondary antibody in PBS. After several washes, slides were counterstained with DAPI (Solarbio). The sections were mounted on microscope and imaged using fluorescent microscopy (Nikon, Tokyo, Japan). Image-Pro Plus 6.0 was used to analyze the fluorescence intensity.
Histological sections were dewaxed, antigens were repaired and sealed with serum in sequence. Next, histological sections were incubated overnight with diluted primary antibodies (1 : 500 dilution), and the control specimens were treated with PBS. The sections were washed 3 times with PBS. Secondary antibody was added and the system was then placed at 37 °C for half an hour. The systems were washed 3 times with PBS. Color developing agent was added. After washing with water, the system was soaked in hematoxylin for 0.5 min for dyeing. The re-dyed slides were washed with water, and then dehydrated. Neutral gums were dropped on the side of the tissue. The slices were then covered with cover glass, sealed and placed in a ventilator for drying. Immunohistochemical staining analysis was then carried out with Image-Pro Plus 6.0.

KYSE450 cells [2] = test: Annexin V/PI flow cytometry for apoptosis, KYSE450; format: cell-based, human; settings: 48 h
Method: (§4) Cell-apoptosis analysis was carried out by flow cytometry using the Annexin V/PI apoptosis methods. […] Cells were harvested and incubated with 250 μL of 1 × Annexin V binding buffer containing 5 μL PI and 5 μL FITC Annexin V (final concentration 1.8 μg/ml, Biolegend (cat: 640945) for 15 min at room temperature in dark. 200 µL of 1 × binding buffer was added for flow cytometry analysis (BD FACSCalibur™ Flow Cytometer).

KYSE70TR cells = test: MTT assay, taxol-resistant KYSE70TR; format: cell-based, human; settings: Homo sapiens; MTT, 48 h, taxol-resistant KYSE70TR, value in parentheses; read-out: IC50 48 h KYSE70TR (data in parentheses) (converted)
Source text: as §2, §3

KYSE450TR cells [3] = test: Annexin V/PI flow cytometry for apoptosis, KYSE450TR; format: cell-based, human; settings: 48 h
Method: as §4

EGFR = biological target: T1, EGFR (Homo sapiens, UniProt P00533); test: EGFR kinase assay (ELISA); format: biochemical; settings: 25°C
T1 construct: purchased Active MOTIF
Method: Kinase inhibitory activities of the compounds were evaluated using the Protein Tyrosine Kinase Assay Kit (SignalChem (British Columbia, Canada)). The kinase enzyme of EGFR was purchased from Active MOTIF. The ELISA experiments were carried out according the instructions of the kit. Active kinases were incubated with indicated compounds in 1 × reaction buffer containing 20 μM substrate at 25°C for 1 h and 2 h, respectively. The absorbance was read with a multimode plate reader (PerkinElmer, United States) at 450 nm.

KYSE450TR cells [4] = test: MTT assay, taxol-resistant KYSE450TR; format: cell-based, human; settings: Homo sapiens; MTT, 48 h, taxol-resistant KYSE450TR, value in parentheses; read-out: IC50 48 h KYSE450TR (data in parentheses) (converted)
Source text: as §2, §3

KYSE450 cells [5] = test: Cell cycle analysis by flow cytometry, KYSE450; format: cell-based, human; settings: KYSE450, 24 h; icotinib at 2 μM, 3l at 8 μM
Method: (§5) KYSE450/KYSE450TR cells were plated in 6-well plates with a density of 1×10^5 cells/well and cultured overnight. […] Trypsinization treatment and the cells were collected by centrifugation. The cell pellet was re-suspended in 70% ethanol at −20°C for at least 3 h. The cells were washed with PBS and were re-suspended in 250 μL of 0.6% tricine with Renease A for 1 h, then stained in PI (final concentration 1.8 μg/ml, Biolegend cat: 640945) for 15 min in dark. Cells were retransferred to the BD FACSCalibur™ Flow Cytometer. All analyses were performed with FlowJo software v105.3.6.

H1650 cells = test: MTT assay for cell proliferation and cytotoxicity, H1650; format: cell-based; settings: Homo sapiens, NCI-H1650, 48 h, H1650, n = 5
Procedure, shortened: as §1

SHEE cells = test: MTT assay, normal esophageal epithelial cell line SHEE; format: cell-based; settings: Homo sapiens, 48 h, n = 5
Procedure, shortened: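 MTT, 48 h compound exposure, 0–50 μM, 0.1% DMSO ctrl, 5 replicate wells/conc. 2,200–2,500 cells/well; A490 read. Resistant lines maintained with 100 nm/L paclitaxel.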

KYSE450TR cells [6] = test: Cell cycle analysis by flow cytometry, KYSE450TR; format: cell-based, human; settings: 24 h, icotinib at 8 μM, 3l at 8 μM
Method: as §5

KYSE410TR cells = test: MTT assay, taxol-resistant KYSE410TR; format: cell-based, human; settings: Homo sapiens; MTT, 48 h, taxol-resistant KYSE410TR, value in parentheses; read-out: IC50 48 h KYSE410TR (data in parentheses) (converted)
Source text: as §2, §3

KYSE450 cells [7] = test: MTT assay, KYSE450; format: cell-based, human; settings: Homo sapiens, KYSE-450; MTT, 48 h, KYSE450, n = 5; read-out: IC50 48 h KYSE450
Procedure, shortened: as §1

H1650TR cells = test: MTT assay, taxol-resistant H1650TR; format: cell-based; settings: Homo sapiens, NCI-H1650, 48 h, value in parentheses in H1650 column
Source text: as §2
Cells were seeded in 96-well plates with 2,200–2,500 cells/well in100 μL. One day after seeding, test compounds with the concentration between 0 and 50 μM were added with 0.1% DMSO as control. Five multiple wells for each concentration. After 48 h, MTT was added and incubated in the plate for 1–4 h in the incubator. The absorbance at 490 nm was measured using a microplate reader (Thermo).

KYSE70 cells = test: MTT assay, KYSE70; format: cell-based, human; settings: Homo sapiens, KYSE-70; MTT, 48 h, KYSE70, n = 5
Procedure, shortened: as §1

[8] = biological target: T2, EGFR wild protein (H672-A1210) (Homo sapiens, UniProt P00533); test: EGFR protein affinity determined with SPR; format: binding; settings: immobilized wild-type EGFR
T2 construct: purchased Active MOTIF 31165
Method: Firstly, EGFR protein (protein concentration : 0.468 μg/μL, Active MOTIF, cat: 31165, lot: 28215004) was covalently immobilized onto a CM5 sensor chip at densities of 2000 response units. […] During the drug-protein interaction, the change of the refractive index was measured in real-time which would allow the plotting of the results of interaction as response units versus time. The interaction results were analyzed under a BIA evaluation 3.0 software.

KYSE410 cells = test: MTT assay, KYSE410; format: cell-based, human; settings: Homo sapiens, KYSE-410; MTT, 48 h, KYSE410, n = 5; read-out: IC50 48 h KYSE410
Procedure, shortened: as §1

[9] = nude mice, 50 mg/kg i.p. every day, 15 days, vs control group and icotinib group

T1 sequence (P00533 25-1210): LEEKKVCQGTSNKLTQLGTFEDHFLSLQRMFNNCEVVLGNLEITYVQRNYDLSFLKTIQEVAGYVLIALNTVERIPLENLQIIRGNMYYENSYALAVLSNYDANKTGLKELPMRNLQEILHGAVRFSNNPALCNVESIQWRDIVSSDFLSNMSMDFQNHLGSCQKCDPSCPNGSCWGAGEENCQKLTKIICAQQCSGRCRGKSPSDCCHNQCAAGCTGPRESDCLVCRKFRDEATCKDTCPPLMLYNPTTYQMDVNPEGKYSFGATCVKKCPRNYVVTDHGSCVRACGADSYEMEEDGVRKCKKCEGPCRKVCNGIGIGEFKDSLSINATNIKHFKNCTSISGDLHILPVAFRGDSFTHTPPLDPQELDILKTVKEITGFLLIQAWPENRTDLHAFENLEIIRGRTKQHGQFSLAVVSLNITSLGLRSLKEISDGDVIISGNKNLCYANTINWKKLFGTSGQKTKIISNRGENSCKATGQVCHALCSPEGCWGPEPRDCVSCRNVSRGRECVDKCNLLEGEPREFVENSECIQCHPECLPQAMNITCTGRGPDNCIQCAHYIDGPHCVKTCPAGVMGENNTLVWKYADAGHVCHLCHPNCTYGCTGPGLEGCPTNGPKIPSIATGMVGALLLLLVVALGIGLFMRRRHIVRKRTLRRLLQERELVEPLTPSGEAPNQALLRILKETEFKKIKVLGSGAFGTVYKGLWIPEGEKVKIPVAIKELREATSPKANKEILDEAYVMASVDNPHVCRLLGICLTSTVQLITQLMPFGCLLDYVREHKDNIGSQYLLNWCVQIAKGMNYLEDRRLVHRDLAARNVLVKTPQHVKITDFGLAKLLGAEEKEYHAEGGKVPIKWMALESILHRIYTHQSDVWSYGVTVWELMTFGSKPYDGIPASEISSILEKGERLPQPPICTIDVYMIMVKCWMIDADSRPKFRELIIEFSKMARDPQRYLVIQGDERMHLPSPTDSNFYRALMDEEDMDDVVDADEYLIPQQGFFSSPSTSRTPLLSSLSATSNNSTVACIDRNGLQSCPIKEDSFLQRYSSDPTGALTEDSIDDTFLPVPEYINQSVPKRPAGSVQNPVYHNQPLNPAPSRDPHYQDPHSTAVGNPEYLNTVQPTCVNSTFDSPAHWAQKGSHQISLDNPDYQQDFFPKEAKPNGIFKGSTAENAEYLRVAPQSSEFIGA
T2 sequence (P00533 672-1210): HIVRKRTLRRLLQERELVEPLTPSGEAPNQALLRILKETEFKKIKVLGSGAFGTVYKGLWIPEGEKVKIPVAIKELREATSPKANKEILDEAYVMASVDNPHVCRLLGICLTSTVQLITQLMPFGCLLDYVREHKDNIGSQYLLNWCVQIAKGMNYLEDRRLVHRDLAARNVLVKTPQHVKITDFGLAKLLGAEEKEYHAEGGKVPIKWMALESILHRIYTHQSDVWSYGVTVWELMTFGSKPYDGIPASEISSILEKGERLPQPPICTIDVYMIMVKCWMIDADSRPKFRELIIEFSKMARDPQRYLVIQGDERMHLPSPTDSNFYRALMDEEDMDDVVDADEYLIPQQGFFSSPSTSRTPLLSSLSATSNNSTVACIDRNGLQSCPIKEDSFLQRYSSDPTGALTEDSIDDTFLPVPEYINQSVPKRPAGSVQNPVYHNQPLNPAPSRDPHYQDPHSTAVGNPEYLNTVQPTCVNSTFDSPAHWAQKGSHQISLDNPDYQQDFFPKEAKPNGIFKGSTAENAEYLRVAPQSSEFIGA

- IC50 (H1975OR cells; H1975OR, 24 h, resistance-inducing drug (osimertinib), read-out: 24 h IC50): 13.8 ± 2.98 µM
- IC50 (H1975OR cells; H1975OR, 48 h, resistance-inducing drug (osimertinib), read-out: 48 h IC50): 5.97 ± 0.289 µM
SMILES: C=CC(=O)Nc1cc(Nc2nccc(-c3cn(C)c4ccccc34)n2)c(OC)cc1N(C)CCN(C)C [osimertinib, reference compound]
- IC50 (H1975 cells; Homo sapiens, NCI-H1975, 24 h, H1975, MTT, 24 h, resistance-inducing drug (osimertinib), read-out: 24 h IC50): 0.585 ± 0.0261 µM
- IC50 (H1975 cells; Homo sapiens, NCI-H1975, 48 h, H1975, MTT, 48 h, resistance-inducing drug (osimertinib), read-out: 48 h IC50): 0.102 ± 0.0121 µM

SMILES: C#Cc1cccc(Nc2ncnc3cc(OCCOC)c(OCCOC)cc23)c1 [erlotinib, reference compound]
- expression of proliferation marker Ki-67 in tumor ([1]; 50 mg/kg i.p., immunofluorescence): decreased significantly
- expression of P-ERK (Tyr202/204) in tumor ([1]; 50 mg/kg i.p., immunohistochemistry): decreased significantly
- ESCC tumor volume [1, 9]: markedly reduced
- average tumor weight [1, 9]: markedly reduced

- IC50 (EGFR; incubation 1 h, read-out: IC50 EGFR 1 h): 0.00138 µM
- IC50 (EGFR; incubation 2 h, read-out: IC50 EGFR 2 h): 0.038 µM
- IC50 (H1650TR cells): > 50 µM
- IC50 (H1975OR cells; NCI-H1975, 48 h, osimertinib-resistant H1975OR, value in parentheses in H1975 column, read-out: IC50 48 h H1975OR (data in parentheses) (converted)): > 50 µM
- Rmax(RU) [8]: 15.74 RU
- Kd ([8]; 25°C): 36.1 µM
SMILES: C#Cc1cccc(Nc2ncnc3cc4c(cc23)OCCOCCOCCO4)c1 [icotinib, reference compound]
- proportion of apoptotic cells (KYSE450 cells [2]; KYSE450, 2 μM): 7.84%
- proportion of apoptotic cells (KYSE450 cells [2]; KYSE450, 4 μM): 12.25%
- IC50 (KYSE70TR cells): > 50 µM
- proportion of apoptotic cells (KYSE450TR cells [3]; 5 μM): 8.51%
- proportion of apoptotic cells (KYSE450TR cells [3]; 10 μM): 10.43%
- IC50 (KYSE450TR cells [4]): > 50 µM
- cell cycle phase in which cells were arrested (KYSE450 cells [5]): G1 phase
- IC50 (H1650 cells): > 50 µM
- IC50 (SHEE cells): 19.2 ± 1.29 µM
- cell cycle phase in which cells were arrested (KYSE450TR cells [6]): G1 phase
- IC50 (H1975 cells; Homo sapiens, NCI-H1975, 48 h, MTT, 48 h, H1975, n = 5, read-out: IC50 48 h H1975): > 50 µM
- IC50 (H1975 cells; MTT, 48 h, H1975, n = 5, read-out: IC50 48 h H1975): 48.3 ± 2.13 µM
- IC50 (KYSE410TR cells): > 50 µM
- IC50 (KYSE450 cells [7]): 30.4 ± 1.96 µM
- IC50 (KYSE70 cells): > 50 µM
- IC50 (KYSE410 cells): > 50 µM

Source: article PMC9709406 (Frontiers in Pharmacology, 2022)
